In patent publication US12385839B2, “Use of protein in predicting drug properties” (priority 2021, dated 2025):
Where two headings read alike, the source gives them in different places.

Key:
[1] = target: T1, human serum albumin (HSA) (Homo sapiens, UniProt P02768); assay: Fluorescence emission spectrum (quenching) of HSA with carbamate pesticides; assay type: binding; conditions: for R (binding distance): Förster energy transfer; for fluorescence of HSA quenched by pesticide: titration of pesticide; for ΔH^0 / ΔS^0: Van't Hoff, 296-310 K
Experimental: the mixed solution to be tested was preheated at […] for 3 minutes, and the emission spectrum of HSA with carbamate pesticides was measured at 300-500 nm . The excitation wavelength was set at 280 nm , and the slit width for both excitation and emission was 15 nm; the HSA concentration was kept constant at 5×10^−7 M, and the pesticide concentration was (0-105)×10^−7 M.
The internal filtering effect of fluorescence signal was corrected according to the following formula: Fcor=Fobsexp[(Aex+Aem)/2] (1);
in this formula, Fcor and Fobs represent corrected fluorescence signal and observed fluorescence signal, respectively, and Aex and Aem represent absorbance of the mixed solution to be tested at excitation wavelength and emission wavelengths, respectively; the quenching constant, number of binding sites, binding constant, free energy and binding distance of different drugs were obtained by fluorescence emission spectra, and a BP neural network model was obtained. Specifically, they were obtained as follows:
There is a linear relationship between F0/F and [Q] to distinguish whether it is static quenching or dynamic quenching. The fluorescence quenching data are analyzed by Stern-Volmer equation to clarify the quenching mechanism: F0/F=1+KSV[Q]=1+Kqτ0[Q] (2);
in the formula, F0 and F are fluorescence signals […] quencher, respectively. Ksv is Stern-Volmer quenching constant; Kq is a quenching rate constant of biomolecules; τ0 is the average lifetime of biomolecules without quencher (about 10^−8 s); [Q] is the concentration of quencher.
The maximum dynamic quenching rate constant of all kinds of quenchers on polymers was 2.0×10^10 L·mol^−1·s^−1. Static quenching and dynamic quenching could be judged according to this value. If K^q was greater than 2.0×10^10 L·mol^−1·s^−1, it belonged to static quenching. Otherwise, it belonged to dynamic quenching.
In this part, the binding sites and binding constants between carbamate pesticides and HSA were calculated. The following formula was used to calculate the number of binding sites (n) and the binding constant (Ka) of carbamate pesticides and HSA: log[(F0−F)/F]=log Ka+nlog[Q] (3);
The interactions between biological molecules and drug molecules were weak intermolecular interactions, including hydrogen bonds, van der Waals forces, electrostatic forces and hydrophobic interactions. By using Van't Hoff equation, the thermodynamic constants of drug-protein interaction were obtained, and the main types of drug-protein interaction were judged according to the changes of binding constants under different conditions. LnK=−ΔH^0/RT+ΔS^0/R (4); ΔG^0=ΔH^0−TΔS^0 (5);
There is a relationship among energy transfer efficiency E, distance r between energy donor and energy receptor and energy transfer distance R0. E=1−F/F0=R0^6/(R0^6+r^6) (6);
E represents the transfer efficiency between donor and receptor, r is the average distance between donor and receptor, and R0 is the critical distance when the transfer efficiency is 50%. R0^6=8.79×10^−K^2N^−4φJ (7)
K^2 is the orientation related to the geometry of donor and receptor of dipole. For random orientation in fluid, K^2=2/3; N is the average refractive index of the medium in the wavelength range with obvious spectral overlap, and the refractive index of water and organic matter is 1.336; φ is the quantum yield of donor, and the quantum yield of tryptophan in HSA is about 0.118; J represents the influence of spectral overlap between the emission spectrum of the donor and the absorption spectrum of the receptor, and can be calculated by the following formula: j=ΣF(λ)ϵ(λ)λ^4Δλ/ΣF(λ) Δλ (8);
F(λ) is the corrected fluorescence signal of the donor in the wavelength range from λ to (λ+Δλ), while ϵ(λ) is the extinction coefficient of the receptor at λ.

[2] = cited from earlier work; for LD50: modelling table; for Toxicity: toxicity grade by LD50, trailing figure = number of pesticides in group
[3] = target: T1, human serum albumin (HSA); assay: Circular dichroism spectrum, secondary structure (α-helix content) of HSA; conditions: HSA 2×10^−6 M
Experimental: the mixed solution to be tested was preheated at […] for 2-5 minutes, and the CD spectrum of HSA was recorded in the wavelength range of 200-500 nm . The concentration of HSA was kept at 2×10^−6 M, and the pesticide was (0-20)×10^−6 m. Firstly, HSA was measured, and then the ratio of HSA to pesticides needed to be determined specifically, which was preliminarily determined according to the ratio of 1:1, 1:2 and 1:3.
According to the following equation, the result of CD spectrum was usually expressed as the mean residue ellipticity (MRE), and the unit was deg·cm^2·dmol^−1. MRE=ObservedCD(mdeg)/(10Cpnl) (9);
in which Cp is the molar concentration of protein, n is the number (585) of amino acid residues, and 1 is the path length (1 mm). The α helicity of free and bound HSA is calculated from MRE values using the following formula: α−Helix(%)=[(−MRE208−4000)×100]/(33000-4000) (10)
in which the MRE208 is the MRE value observed at 208 nm , 4000 is the MRE value of random coil conformation at 208 nm , and […] is the MRE value of pure α helix at 208 nm .

[4] = 37°, modelling table, read-out: Ka (37°) (converted)
[5] = 296 K, test-set pesticides (Table 4)
[6] = 303 K, test-set pesticides (Table 4)
[7] = 310 K, test-set pesticides (Table 4)
[8] = 296 K, pH 7.4, read-out: Ka (binding constant)
[9] = 303 K, pH 7.4, read-out: Ka (binding constant)
[10] = 310 K, pH 7.4, read-out: Ka (binding constant)

T1 sequence (P02768 25-609): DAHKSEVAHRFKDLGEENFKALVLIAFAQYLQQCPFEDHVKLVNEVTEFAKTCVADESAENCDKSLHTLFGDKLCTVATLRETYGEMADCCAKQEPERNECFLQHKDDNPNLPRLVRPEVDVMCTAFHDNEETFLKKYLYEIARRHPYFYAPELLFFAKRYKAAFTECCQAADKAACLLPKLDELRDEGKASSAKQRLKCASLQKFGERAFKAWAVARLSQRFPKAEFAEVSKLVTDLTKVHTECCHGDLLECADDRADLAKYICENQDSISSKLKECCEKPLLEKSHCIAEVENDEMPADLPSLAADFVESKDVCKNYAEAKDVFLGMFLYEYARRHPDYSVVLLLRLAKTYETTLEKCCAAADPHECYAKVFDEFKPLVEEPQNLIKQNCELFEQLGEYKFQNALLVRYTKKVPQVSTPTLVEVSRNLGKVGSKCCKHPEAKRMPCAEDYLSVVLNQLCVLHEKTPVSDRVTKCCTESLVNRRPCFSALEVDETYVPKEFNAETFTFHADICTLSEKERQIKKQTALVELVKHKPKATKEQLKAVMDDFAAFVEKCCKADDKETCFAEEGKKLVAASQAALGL

| Structure (SMILES) | Ksv (37°) ([1]; 37°, modelling table) | ΔG(37°) ([1]; 37°, modelling table) | n ([1]; 296 K (Table 4)) | ΔG^0 ([1]; 296 K (Table 4)) | Ksv [1, 5] | n ([1]; 303 K (Table 4)) | ΔG^0 ([1]; 303 K (Table 4)) | Ksv [1, 6] | n ([1]; 310 K (Table 4)) | r ([1]; 310 K (Table 4)) | ΔG^0 ([1]; 310 K (Table 4)) | Ksv [1, 7] | Binding distance/r ([1]; modelling table) | Number of binding sites/n ([1]; modelling table) | LD50 [2] | Toxicity [2] | ΔG^0 ([1]; 296 K) | Kq ([1]; 296 K, pH 7.4) | Ksv ([1]; 296 K, pH 7.4) | n (number of binding sites) ([1]; 296 K, pH 7.4) | other results |
| --- | --- | --- | --- | --- | --- | --- | --- | --- | --- | --- | --- | --- | --- | --- | --- | --- | --- | --- | --- | --- | --- |
| CNC(=O)O/N=C/C(C)(C)SC [Aldicarb, aldicarb] | 72295.50723 | −24.42 | 0.823 ± 0.002 | -5.321 kcal/mol | 6.498 ± 0.153 10^4 M−1 | 0.837 ± 0.002 | -5.5786 kcal/mol | 6.999 ± 0.079 10^4 M−1 | 0.851 ± 0.002 | 2.623 | -5.8363 kcal/mol | 7.230 ± 0.167 10^4 M−1 | 2.623 | 0.8508 | 0.5 mg/kg | Highly | – | – | – | – | Kd [1, 4]: 77.3 µM; Kd ([1]; 296 K (Table 4), read-out: Ka): 119 µM; Kd ([1]; 303 K (Table 4), read-out: Ka): 93.5 µM; Actual LD50 ([2]; Table 5): 0.5 mg/kg; Actual LD50 ([2]; Table 6): 0.5 mg/kg |
| CNC(=O)O/N=C/C(C)(C)S(C)(=O)=O [Aldicarb-sulfone, aldicarb sulfone] | 39842.68547 | −17.29 | 0.582 ± 0.008 | -3.2622 kcal/mol | 2.797 ± 0.157 10^4 M−1 | 0.624 ± 0.003 | -3.6977 kcal/mol | 3.379 ± 0.129 10^4 M−1 | 0.654 ± 0.010 | 2.376 | -4.1334 kcal/mol | 3.984 ± 0.197 10^4 M−1 | – | 0.6544 | – | – | – | – | – | – | Kd ([1]; Ka (37°), 37°, modelling table): 1210 µM; Kd ([1]; Ka, 296 K (Table 4)): 3860 µM; Kd ([1]; Ka, 303 K (Table 4)): 2200 µM |
| CNC(=O)Oc1ccc(N(C)C)c(C)c1 [Aminocarb, aminocarb] | 39050.24214 | −18.36 | – | – | – | – | – | – | – | – | – | – | 2.215 | 0.6985 | 30 mg/kg | Highly | -3.7173 kcal/mol | 3.151 ± 0.089 10^12 M^−1s^−1 | 3.151 ± 0.089 10^4 M^−1 | 0.649 ± 0.005 | Kd [1, 4]: 786 µM; Kd [1, 8]: 1760 µM; ΔG^0 ([1]; 303 K): -4.0531 kcal/mol; Kq ([1]; 303 K, pH 7.4): 3.409 ± 0.059 10^12 M^−1s^−1; Ksv ([1]; 303 K, pH 7.4): 3.409 ± 0.059 10^4 M^−1; n (number of binding sites) ([1]; 303 K, pH 7.4): 0.669 ± 0.006; Kd [1, 9]: 1250 µM; ΔG^0 ([1]; 310 K): -4.3891 kcal/mol; R (binding distance) ([1]; 310 K): 2.215 nm; Kq ([1]; 310 K, pH 7.4): 3.905 ± 0.179 10^12 M^−1s^−1; Ksv ([1]; 310 K, pH 7.4): 3.905 ± 0.179 10^4 M^−1; n (number of binding sites) ([1]; 310 K, pH 7.4): 0.699 ± 0.003; Kd [1, 10]: 786 µM; fluorescence of HSA quenched by pesticide ([1]; 310 K): quenched; ΔH^0 [1]: 10.487 kcal/mol; ΔS^0 [1]: 200.780 J · mol^−1 · K^−1; α-helix contents ([3]; 5:1 (Pesticide:HSA)): 49.862%; α-helix contents ([3]; 10:1 (Pesticide:HSA)): 49.082% |
| CNC(=O)O/N=C(\C)C(C)S(C)(=O)=O (stereo not shown) [Butoxycarboxim, butoxycarboxim] | 62644.83638 | −20.24 | – | – | – | – | – | – | – | – | – | – | 1.964 | 0.725 | 458 mg/kg | Moderately | -3.7366 kcal/mol | 2.888 ± 0.064 10^12 M^−1s^−1 | 2.888 ± 0.064 10^4 M^−1 | 0.658 ± 0.002 | Kd [1, 8]: 1720 µM; ΔG^0 ([1]; 303 K): -4.2875 kcal/mol; Kq ([1]; 303 K, pH 7.4): 4.798 ± 0.112 10^12 M^−1s^−1; Ksv ([1]; 303 K, pH 7.4): 4.798 ± 0.112 10^4 M^−1; n (number of binding sites) ([1]; 303 K, pH 7.4): 0.679 ± 0.002; Kd [1, 9]: 832 µM; ΔG^0 ([1]; 310 K): -4.8384 kcal/mol; R (binding distance) ([1]; 310 K): 1.964 nm; Kq ([1]; 310 K, pH 7.4): 6.264 ± 0.074 10^12 M^−1s^−1; Ksv ([1]; 310 K, pH 7.4): 6.264 ± 0.074 10^4 M^−1; n (number of binding sites) ([1]; 310 K, pH 7.4): 0.725 ± 0.001; Kd [1, 10]: 382 µM; fluorescence of HSA quenched by pesticide ([1]; 310 K): quenched; ΔH^0 [1]: 19.556 kcal/mol; ΔS^0 [1]: 329.251 J · mol^−1 · K^−1; α-helix contents ([3]; 5:1 (Pesticide:HSA)): 53.753%; α-helix contents ([3]; 10:1 (Pesticide:HSA)): 52.790% |
| CCC(C)c1ccccc1OC(=O)NC (stereo not shown) [Fenobucarb, fenobucarb] | 50302.85806 | −15.31 | 0.535 ± 0.006 | -3.0858 kcal/mol | 3.803 ± 0.107 10^4 M−1 | 0.559 ± 0.004 | -3.3726 kcal/mol | 4.110 ± 0.183 10^4 M−1 | 0.567 ± 0.008 | 2.791 | -3.6597 kcal/mol | 5.030 ± 0.145 10^4 M−1 | 2.791 | 0.5672 | 350 mg/kg | Moderately | – | – | – | – | Kd ([1]; Ka (37°), 37°, modelling table): 2640 µM; Kd ([1]; Ka, 296 K (Table 4)): 5280 µM; Kd ([1]; Ka, 303 K (Table 4)): 3670 µM; Actual LD50 ([2]; Table 5): 350 mg/kg; Actual LD50 ([2]; Table 6): 350 mg/kg |
| CNC(=O)O/N=C(\C[S+](C)[O-])C(C)(C)C (stereo not shown) [Thiofanox-sulfoxide] | – | – | – | – | – | – | – | – | – | – | – | – | – | – | – | – | -4.1427 kcal/mol | 3.284 ± 0.040 10^12 M^−1s^−1 | 3.284 ± 0.040 10^4 M^−1 | 0.707 ± 0.009 | Ka (binding constant) ([1]; 296 K, pH 7.4): (1.127 ± 0.100) × 10^3 M^−1; ΔG^0 ([1]; 303 K): -4.5277 kcal/mol; Ka (binding constant) ([1]; 303 K, pH 7.4): (1.906 ± 0.103) × 10^3 M^−1; Kq ([1]; 303 K, pH 7.4): 4.237 ± 0.067 10^12 M^−1s^−1; Ksv ([1]; 303 K, pH 7.4): 4.237 ± 0.067 10^4 M^−1; n (number of binding sites) ([1]; 303 K, pH 7.4): 0.726 ± 0.005; ΔG^0 ([1]; 310 K): -4.913 kcal/mol; R (binding distance) ([1]; 310 K): 1.702 nm; Ka (binding constant) ([1]; 310 K, pH 7.4): (2.861 ± 0.176) × 10^3 M^−1; Kq ([1]; 310 K, pH 7.4): 5.339 ± 0.093 10^12 M^−1s^−1; Ksv ([1]; 310 K, pH 7.4): 5.339 ± 0.093 10^4 M^−1; n (number of binding sites) ([1]; 310 K, pH 7.4): 0.746 ± 0.006; ΔH^0 [1]: 12.144 kcal/mol; ΔS^0 [1]: 230.219 J · mol^−1 · K^−1; α-helix contents ([3]; 5:1 (Pesticide:HSA)): 50.523%; α-helix contents ([3]; 10:1 (Pesticide:HSA)): 48.338% |
